From publication PMC8767786 (Nature structural & molecular biology, 2021)

Target: T1, TRPM5 (Danio rerio, UniProt S5UH55)
T1 sequence (S5UH55 1-1165): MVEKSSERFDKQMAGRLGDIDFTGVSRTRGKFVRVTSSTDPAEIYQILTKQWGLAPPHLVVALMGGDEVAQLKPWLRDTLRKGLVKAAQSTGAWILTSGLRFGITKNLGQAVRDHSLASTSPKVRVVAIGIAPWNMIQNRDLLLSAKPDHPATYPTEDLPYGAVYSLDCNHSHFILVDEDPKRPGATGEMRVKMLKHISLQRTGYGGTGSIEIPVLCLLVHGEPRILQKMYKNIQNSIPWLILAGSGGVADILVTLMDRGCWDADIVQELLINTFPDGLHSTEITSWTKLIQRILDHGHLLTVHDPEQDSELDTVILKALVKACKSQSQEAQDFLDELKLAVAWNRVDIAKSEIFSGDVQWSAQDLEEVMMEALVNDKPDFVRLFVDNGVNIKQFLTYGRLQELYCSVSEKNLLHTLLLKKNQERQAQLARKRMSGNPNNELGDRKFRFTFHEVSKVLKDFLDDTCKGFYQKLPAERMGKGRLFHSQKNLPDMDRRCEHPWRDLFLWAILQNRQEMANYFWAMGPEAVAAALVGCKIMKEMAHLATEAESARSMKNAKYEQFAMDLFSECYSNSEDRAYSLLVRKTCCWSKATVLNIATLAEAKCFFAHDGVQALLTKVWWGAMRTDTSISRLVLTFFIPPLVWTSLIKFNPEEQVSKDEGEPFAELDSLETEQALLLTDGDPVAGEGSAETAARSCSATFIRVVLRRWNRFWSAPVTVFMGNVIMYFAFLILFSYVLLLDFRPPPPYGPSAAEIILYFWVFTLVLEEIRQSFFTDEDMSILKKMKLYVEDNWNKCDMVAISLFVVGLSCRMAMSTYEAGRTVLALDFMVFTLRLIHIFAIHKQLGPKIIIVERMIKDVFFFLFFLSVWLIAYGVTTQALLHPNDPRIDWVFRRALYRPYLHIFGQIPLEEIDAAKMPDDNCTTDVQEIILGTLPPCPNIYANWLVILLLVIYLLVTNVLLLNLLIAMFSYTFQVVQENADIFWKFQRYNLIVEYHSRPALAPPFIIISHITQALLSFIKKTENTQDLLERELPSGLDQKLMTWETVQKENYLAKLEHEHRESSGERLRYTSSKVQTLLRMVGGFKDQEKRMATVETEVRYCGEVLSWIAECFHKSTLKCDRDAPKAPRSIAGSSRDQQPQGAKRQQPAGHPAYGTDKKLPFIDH
Assay: cryo-EM structure
Assay type: cell-based

IC50: ~2.4 nM
SMILES: COc1ccc(C=NNC(=O)Cc2cccc3ccccc23)cc1OC [NDNA, N’-(3,4-dimethoxybenzylidene)-2-(naphthalen-1-yl)acetohydrazide]
